Experimental data published in patent US20240123080A1, “CYTOTOXIC COMPOUNDS AND CONJUGATES THEREOF” (Seagen Inc., priority 2022, published 2024).
Where a SMILES comes first, the peptide text is derived from it. [ ]: non-standard residue; d: D form. The star is where a group is joined. Dolaproine = CO[C@@H]([C@@H]1CCCN1)[C@@H](C)C(=O)O; Dil = CC[C@H](C)[C@H](NC)[C@@H](CC(=O)O)OC; X1 = C[C@@H](N*)[C@@H](O)c1ccccc1; Phe(ol) = N[C@H](CO)Cc1ccccc1; NMeV = CN[C@H](C(=O)O)C(C)C; X2 = CN(C)[C@@H](CO)C(=O)*

Legend:
[1] = test system: SKMEL28; assay: In vitro cytotoxicity of auristatin ADCs and free drugs (CellTiter-Glo, 96 h); type: cell-based; details: for IC50: Homo sapiens, SK-MEL-28, 96 h, read-out: IC50, SKMEL28
Experimental: (§1) Cancer cells were counted and plated in 40 μL complete growth media in 384-well, white-walled tissue culture treated plates (Corning). Cell plates were incubated at 37° C. and with 5% CO2 overnight to allow the cells to equilibrate. Stock solutions containing ADCs or free drugs were serially diluted in RPMI-1640+20% fetal bovine serum (FBS). 10 μL of each concentration were then added to each cell plate in duplicate. Cells were then incubated at 37° C. and with 5% CO2 for 96 hours, upon which, the cell plates were removed from the incubator and allowed to cool to room temperature for 30 minutes prior to analysis. CellTiter-Glo® luminescent assay reagent (Promega Corporation, Madison, WI) was prepared according to Promega's protocol. 10 μL of CellTiter-Glo® were added to assay plates using a Formulatrix Tempest liquid handler (Formulatrix) and the plates were protected from light for 30 minutes at room temperature. The luminescence of the samples was measured using an EnVision Multimode plate reader (Perkin Elmer, Waltham, MA). Raw data were analyzed in Graphpad Prism (San Diego, CA) using a nonlinear, 4-parameter curve fit model [Y=Bottom+(Top-Bottom)/(1+10^((LogEC50−X)*HillSlope))]. Results are reported as IC50 values, which are defined as the concentration of ADC or free drug required to reduce cell viability to 50%.

[2] = test system: A2058; assay: as above; type: cell-based; details: for IC50: Homo sapiens, A2058, 96 h, read-out: IC50, A2058; for IC50, A2058: ADC, 96 h
Experimental: as §1

[3] = test system: SKMEL5; assay: as above; type: cell-based; details: for IC50: Homo sapiens, SK-MEL-5, 96 h, read-out: IC50, SKMEL5; for IC50, SKMEL5: ADC, 96 h
Experimental: as §1

[4] = test system: CALU1; assay: as above; type: cell-based; details: for IC50: Homo sapiens, Calu-1, 96 h, read-out: IC50, CALU1; for IC50, CALU1: ADC, 96 h
Experimental: as §1

[5] = LogD, miniaturized 1-octanol/pH 7.4 buffer shake flask method, LC/MS/MS; type: physicochemical
Experimental: The LogD (distribution coefficient) of the compounds was measured using a miniaturized 1-octanol/pH 7.4 buffer shake flask method followed by LC/MS/MS analysis. Values were determined by measuring the compound partitioned in the organic and buffered layers.

[6] = test system: Karpas299 NHL; assay: In vitro cytotoxicity, cell proliferation assay (CellTiter-Glo, 96 h); type: cell-based; details: Homo sapiens, KARPAS-299, auristatin free drug
Experimental: (§2) The cytotoxicity of free drugs and drug conjugates were measured by a cell proliferation assay employing the protocol described in Promega Corp. Technical Bulletin TB288; and Mendoza et al., 2002, Cancer Res. 62:5485-5488), the methods of which are specifically incorporated by reference herein. Briefly, an aliquot of 40 μl of cell culture containing about 400 cells in medium is deposited in each well of a 384-well, opaque-walled plate. A 10 μL aliquot of free drug or drug conjugate is added to the experimental wells and incubated for 96 h and are then equilibrated to room temperature for approximately 30 minutes whereupon a volume of CellTiter-Glo™ reagent equal to the volume of cell culture medium present in each well is added. The contents are mixed for 2 minutes on an orbital shaker to induce cell lysis and the plate is incubated at room temperature for 10 minutes to stabilize the luminescence signal for recordation.

[7] = test system: DEL ALCL; assay: as above; type: cell-based; details: auristatin free drug
Experimental: as §2

[8] = test system: L540cy HL; assay: as above; type: cell-based; details: auristatin free drug
Experimental: as §2

[9] = test system: DEL, Karpas299, and L540cy cell lines; assay: Average cytotoxicity of DEL, Karpas299, and L540cy cell lines; type: cell-based; details: read-out: Avg IC50 Free drug
Experimental: as §2
Tolerability of an ADC comprising the compound of Example 8 of the present application was compared to tolerability of ADCs comprising the known compounds MMAE and MMAF. Without being bound by theory, the improvements in tolerability are believed to be related to reduced toxicities in the bone marrow and in the liver that are a result of the OH moieties on the compound of Example 8.

[10] = test system: cynomolgus monkeys; assay: In vivo toxicology study of hCR011 ADCs at 5 mg/kg (Example 98); parameters: species or system cynomolgus monkey; details: DAR=4
Experimental: In vivo toxicology studies were done in naive cynomolgus monkeys. Studies had 2 animals/group/timepoint of hCR011-MC-VC-MMAE (DAR=4) or hCR011-Example 60 (DAR=4). Animals were administered four weekly doses of 5 mg/kg of ADC via intravenous (slow bolus) injection.

[11] = test system: cynomolgus monkeys; assay: In vivo safety study of hCR011 ADCs, hematology and clinical chemistry (Example 97); parameters: species or system cynomolgus monkey; details: 3 mg/kg, four weekly i.v. doses, DAR=4
Experimental: In vivo safety studies were done in naive cynomolgus monkeys. Studies had 1 or 2 animals/group/timepoint of hCR011-MC-VC-MMAE (DAR=4) or hCR011-Example 60 (DAR=4). Animals were administered four weekly doses of 3, 5, or 10 mg/kg of ADC via intravenous (slow bolus) injection. Baseline measurements for hematology and clinical chemistry parameters were taken from blood drawn at one or two time points prior to dosing, and post-dose timepoints were collected at day 8, and also on days 15 and 29 (hematology only).

[12] = test system: SKBR3; assay: In vitro cytotoxicity of auristatin ADCs and free drugs (CellTiter-Glo, 96 h); type: cell-based; details: ADC, Table 8
Experimental: as §1

[13] = test system: HCC2218; assay: as above; type: cell-based; details: ADC, Table 8
Experimental: as §1

[14] = test system: WM2664; assay: as above; type: cell-based; details: ADC, Table 8
Experimental: as §1

Molecule	IC50 [1]	IC50 [2]	IC50 [3]	IC50 [4]	logD [5]	IC50 [6]	IC50 [7]	IC50 [8]	IC50 [9]	further results
CC[C@H](C)[C@@H]([C@@H](CC(=O)N1CCC[C@H]1[C@H](OC)[C@@H](C)C(=O)N[C@H](CO)Cc1ccccc1)OC)N(C)C(=O)[C@@H](NC(=O)[C@H](CO)N(C)C)C(C)C [Ex. 8 (compound 1.1)] (X2-V[Dil][Dolaproine][Phe(ol)])	4 nM	2 nM	2 nM	5 nM	–	–	–	–	–	–
CC[C@H](C)[C@@H]([C@@H](CC(=O)N1CCC[C@H]1[C@H](OC)[C@@H](C)C(=O)N[C@H](CO)Cc1ccccc1)OC)N(C)C(=O)[C@@H](NC(=O)[C@H](CO)N(C)C)C(C)C [Example 8] (X2-V[Dil][Dolaproine][Phe(ol)])	–	–	–	–	1.6	1.4 nM	0.7 nM	6.6 nM	2.9 nM	–
CC[C@H](C)[C@@H]([C@@H](CC(=O)N1CCC[C@H]1[C@H](OC)[C@@H](C)C(=O)N[C@H](C)[C@@H](O)c1ccccc1)OC)N(C)C(=O)[C@@H](NC(=O)[C@@H](NC)C(C)C)C(C)C [MMAE, monomethyl auristatin E, reference compound] (H-[NMeV]V[Dil][Dolaproine]-X1)	0.4 nM	0.3 nM	0.2 nM	0.6 nM	1.9	0.1 nM	0.05 nM	0.1 nM	0.2 nM	–
CC[C@H](C)[C@@H]([C@@H](CC(=O)N1CCC[C@H]1[C@H](OC)[C@@H](C)C(=O)N[C@@H](Cc1ccccc1)C(=O)O)OC)N(C)C(=O)[C@@H](NC(=O)[C@@H](NC)C(C)C)C(C)C [MMAF, monomethyl auristatin F, reference compound] (H-[NMeV]V[Dil][Dolaproine]F-OH)	–	–	–	–	0.03	41 nM	44 nM	47 nM	44 nM	–
hCR011-MC-VC-MMAE: "conjugate hCR011-MC-VC-MMAE" "(DAR=4)" [reference compound]	–	–	–	–	–	–	–	–	–	neutrophil counts post-dose on Day 8, FIG. 21 [10]: a decrease relative to baseline; neutrophil counts post-administration, FIG. 17 [11]: a decrease relative to baseline on days 8, 15, and 29; IC50, SKBR3 [12]: 2.69 µg/mL; IC50, SKMEL28 ([1]; ADC, Table 9, 96 h): 14.02 µg/mL; IC50, A2058 ([2]; Table 8): 24.3 µg/mL; IC50, A2058 ([2]; Table 9): 11.118 µg/mL; IC50, HCC2218 [13]: >30K; IC50, WM2664 [14]: 4.468 µg/mL; IC50, SKMEL5 ([3]; Table 8): 0.916 µg/mL; IC50, SKMEL5 ([3]; Table 9): 0.668 µg/mL; IC50, CALU1 ([4]; Table 8): >30K; IC50, CALU1 ([4]; Table 9): 14251 ng/mL
